How the values were obtained:
Assay in all cases: relative viability (nuclei count vs DMSO), 5 days (fraction); higher = more cells survive
CX-5461 = compound: Cc1cnc(CNC(=O)c2c(=O)c3ccc(N4CCCN(C)CC4)nc3n3c2sc2ccccc23)cn1 [CX-5461]
Procedure, shortened: (§1)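 After an overnight hold at 37 °C, lung cancer cell lines in 1536-well plates were pinned with five library-drug doses (not always all listed), each √10 from the next, on vehicle-anchored plates. The cells stayed 5 days without fresh medium, then a one-step fix, permeabilisation and Hoechst stain preceded 4× imaging and MetaXpress nuclear counts. A plate passed only with control CV under 25% and at least one doubling. Viability is the median, over plates, of treated-well nuclei relative to vehicle-well nuclei.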

IMD-0354 = compound: O=C(Nc1cc(C(F)(F)F)cc(C(F)(F)F)c1)c1cc(Cl)ccc1O [IMD-0354]
Procedure, shortened: as §1

CX-5461 + Decitabine = compound: Cc1cnc(CNC(=O)c2c(=O)c3ccc(N4CCCN(C)CC4)nc3n3c2sc2ccccc23)cn1 [CX-5461] + Nc1ncn([C@H]2C[C@H](O)[C@@H](CO)O2)c(=O)n1 [Decitabine] (partner 2 µM)
Procedure, shortened: (§2)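 The day after seeding in 1536-well plates, lung cancer cell lines were treated by pin tool with a single drug, or with a fixed anchor-drug dose together with five library-drug doses (not always all listed) in √10 steps. After 5 days, a combined fix-and-stain solution (final 0.05% Triton X-100, 1% formaldehyde, 1 ug/ml Hoechst) was added. Nuclei counted on 4× images gave relative viability as treated counts over vehicle counts, reported as the median of duplicate plates.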

CX-5461 + Vorinostat = compound: Cc1cnc(CNC(=O)c2c(=O)c3ccc(N4CCCN(C)CC4)nc3n3c2sc2ccccc23)cn1 [CX-5461] + O=C(CCCCCCC(=O)Nc1ccccc1)NO [Vorinostat] (partner 1 µM)
Procedure, shortened: as §2

For UMC-11, the relative viability (CX-5461; 0.01 µM) was 1.09, the relative viability (CX-5461; 0.03162 µM) was 0.994 and the relative viability (CX-5461; 0.1 µM) was 0.928. The relative viability (CX-5461; 0.3162 µM) was 0.909, the relative viability (CX-5461; 1 µM) was 0.382 and the relative viability (IMD-0354; 0.04 µM) was 1.1. For the same cell line, the relative viability (IMD-0354; 0.1265 µM) was 1.04, the relative viability (IMD-0354; 0.4 µM) was 0.551 and the relative viability (IMD-0354; 1.265 µM) was 0.224. It also gave a relative viability (IMD-0354; 4 µM) of 0.271, a relative viability (CX-5461 + Decitabine; first compound 0.01 µM) of 0.611 and a relative viability (CX-5461 + Decitabine; first compound 0.03162 µM) of 0.464. It also gave a relative viability (CX-5461 + Decitabine; first compound 0.1 µM) of 0.497, a relative viability (CX-5461 + Decitabine; first compound 0.3162 µM) of 0.301 and a relative viability (CX-5461 + Decitabine; first compound 1 µM) of 0.36. For the same cell line, the relative viability (CX-5461 + Vorinostat; first compound 0.01 µM) was 0.338, the relative viability (CX-5461 + Vorinostat; first compound 0.03162 µM) was 0.35 and the relative viability (CX-5461 + Vorinostat; first compound 0.1 µM) was 0.384. It also gave a relative viability (CX-5461 + Vorinostat; first compound 0.3162 µM) of 0.398 and a relative viability (CX-5461 + Vorinostat; first compound 1 µM) of 0.202.

Source: the supplement of paper PMC10307832
